From the CheMixHub viscosity set
Values joined by “and” are separate entries in the source; they are usually repeats but may differ in a detail not shown here. Equal entries are not always repeated.

Test: xn = mol fraction of the nth substance listed

NS(=O)(=O)c1cc(C(=O)O)c(NCc2ccco2)cc1Cl + O
viscosity, 101 kPa
Conditions	293.15 K	298.15 K	303.15 K	308.15 K	313.15 K
x1 = 2e-05	1.009 mPa·s	0.8969 mPa·s and 0.8925 mPa·s	0.8057 mPa·s and 0.8013 mPa·s	0.7295 mPa·s and 0.7245 mPa·s	0.6618 mPa·s and 0.6566 mPa·s
x1 = 9e-05	1.017 mPa·s and 1.02 mPa·s	0.9018 mPa·s and 0.9048 mPa·s	0.81 mPa·s and 0.8104 mPa·s	0.7336 mPa·s and 0.7368 mPa·s	0.6659 mPa·s
x1 = 0.0002	1.022 mPa·s and 1.018 mPa·s	0.9069 mPa·s and 0.9052 mPa·s	0.8174 mPa·s and 0.8126 mPa·s	0.7401 mPa·s and 0.7333 mPa·s	0.6718 mPa·s and 0.6662 mPa·s

O=CO + NC=O
viscosity [mPa·s]
Conditions	298.15 K	303.15 K	308.15 K	313.15 K
101 kPa, x2 = 0.1	1.946	–	–	1.429
101 kPa, x2 = 0.2005	2.316	–	–	1.685
101 kPa, x2 = 0.3015	2.557	–	–	1.849
101 kPa, x2 = 0.4	2.85	–	–	2.065
101 kPa, x2 = 0.5002	3.057	–	–	2.23
101 kPa, x2 = 0.6001	3.196	–	–	2.31
101 kPa, x2 = 0.7	3.286	–	–	2.342
101 kPa, x2 = 0.8001	3.314	–	–	2.355
101 kPa, x2 = 0.9	3.341	–	–	2.368
101.33 kPa, x2 = 0.0748	1.77	1.58	1.45	1.33
101.33 kPa, x2 = 0.1535	2.01	1.79	1.65	1.52
101.33 kPa, x2 = 0.2286	2.25	2	1.83	1.68
101.33 kPa, x2 = 0.3078	2.5	2.21	2.02	1.84
101.33 kPa, x2 = 0.3891	2.81	2.47	2.26	2.07
101.33 kPa, x2 = 0.4554	2.86	2.52	2.3	2.1
101.33 kPa, x2 = 0.5248	2.98	2.62	2.39	2.18
101.33 kPa, x2 = 0.6239	3.06	2.69	2.46	2.24
101.33 kPa, x2 = 0.6923	3.09	2.72	2.48	2.25
101.33 kPa, x2 = 0.7982	3.13	2.74	2.49	2.26
101.33 kPa, x2 = 0.8449	3.12	2.73	2.48	2.26
101.33 kPa, x2 = 0.9202	3.11	2.72	2.47	2.25

CCCCCBr + ClC(Cl)(Cl)Cl
viscosity [mPa·s], 101 kPa
Conditions	293.15 K	303.15 K	313.15 K	323.15 K
x1 = 0.13	0.925	0.81	0.712	0.633
x1 = 0.273	0.887	0.78	0.692	0.62
x1 = 0.429	0.863	0.76	0.675	0.602
x1 = 0.601	0.841	0.742	0.66	0.592

CC(Cl)(Cl)Cl + CCCCO
298.15 K, 101 kPa
Conditions	viscosity [mPa·s]
x1 = 0.1022	2.187
x1 = 0.2068	1.872
x1 = 0.3061	1.611
x1 = 0.4067	1.372
x1 = 0.5174	1.164
x1 = 0.605	1.042
x1 = 0.6995	0.936
x1 = 0.7924	0.855
x1 = 0.9022	0.811

O=CO + O
Conditions	viscosity [mPa·s]
293.15 K, 101.33 kPa, x1 = 0.0417	1.098
293.15 K, 101.33 kPa, x1 = 0.1309	1.195
293.15 K, 101.33 kPa, x1 = 0.144	1.216
293.15 K, 101.33 kPa, x1 = 0.1574	1.215
293.15 K, 101.33 kPa, x1 = 0.2621	1.323
293.15 K, 101.33 kPa, x1 = 0.2708	1.328
293.15 K, 101.33 kPa, x1 = 0.281	1.344
293.15 K, 101.33 kPa, x1 = 0.2928	1.347
293.15 K, 101.33 kPa, x1 = 0.3352	1.394
293.15 K, 101.33 kPa, x1 = 0.338	1.4
293.15 K, 101.33 kPa, x1 = 0.3556	1.4
293.15 K, 101.33 kPa, x1 = 0.3729	1.414
293.15 K, 101.33 kPa, x1 = 0.4039	1.478
293.15 K, 101.33 kPa, x1 = 0.4086	1.48
293.15 K, 101.33 kPa, x1 = 0.4832	1.519
293.15 K, 101.33 kPa, x1 = 0.5055	1.525
293.15 K, 101.33 kPa, x1 = 0.5951	1.601
293.15 K, 101.33 kPa, x1 = 0.9418	1.68
298.15 K, 101 kPa, x1 = 0.0122	0.907
298.15 K, 101 kPa, x1 = 0.1286	1.041
298.15 K, 101 kPa, x1 = 0.525	1.379
298.15 K, 101.33 kPa, x1 = 0.1037	0.979
298.15 K, 101.33 kPa, x1 = 0.1496	1.029
298.15 K, 101.33 kPa, x1 = 0.1753	1.039
298.15 K, 101.33 kPa, x1 = 0.2194	1.076
298.15 K, 101.33 kPa, x1 = 0.3029	1.174
298.15 K, 101.33 kPa, x1 = 0.3271	1.219
298.15 K, 101.33 kPa, x1 = 0.3334	1.227
298.15 K, 101.33 kPa, x1 = 0.3355	1.228
298.15 K, 101.33 kPa, x1 = 0.3729	1.268
298.15 K, 101.33 kPa, x1 = 0.4205	1.305
298.15 K, 101.33 kPa, x1 = 0.4762	1.356
298.15 K, 101.33 kPa, x1 = 0.4906	1.36
298.15 K, 101.33 kPa, x1 = 0.5185	1.362
298.15 K, 101.33 kPa, x1 = 0.6055	1.427
298.15 K, 101.33 kPa, x1 = 0.9418	1.598
303.15 K, 101 kPa, x1 = 0.0501	0.849
303.15 K, 101 kPa, x1 = 0.1061	0.897
303.15 K, 101 kPa, x1 = 0.169	0.95
303.15 K, 101 kPa, x1 = 0.2404	0.994
303.15 K, 101 kPa, x1 = 0.3219	1.062
303.15 K, 101 kPa, x1 = 0.4159	1.156
303.15 K, 101 kPa, x1 = 0.5255	1.159
303.15 K, 101 kPa, x1 = 0.655	1.234
303.15 K, 101 kPa, x1 = 0.8103	1.288
313.15 K, 101.33 kPa, x1 = 0.0417	0.729
313.15 K, 101.33 kPa, x1 = 0.144	0.809
313.15 K, 101.33 kPa, x1 = 0.281	0.92

CCCC[N+](CCCC)(CCCC)CCCC.[OH-] + CC(=O)N(C)C
viscosity [mPa·s], 101 kPa
Conditions	298.15 K	303.15 K	308.15 K	313.15 K
x1 = 0.0124	1.15	1.05	0.97	0.9
x1 = 0.0388	1.63	1.47	1.38	1.23
x1 = 0.0678	2.15	1.97	1.81	1.64
x1 = 0.0996	2.67	2.47	2.25	2.06
x1 = 0.1348	3.16	2.96	2.7	2.49
x1 = 0.1538	3.44	3.22	2.96	2.71
x1 = 0.1951	3.94	3.74	3.48	3.21
x1 = 0.2666	4.74	4.48	4.21	3.94
x1 = 0.3529	5.43	5.15	4.9	4.62
x1 = 0.4589	6.02	5.73	5.48	5.21
x1 = 0.5925	6.45	6.2	5.97	5.73
x1 = 0.7026	6.63	6.37	6.14	5.93
x1 = 0.8358	6.66	6.42	6.19	5.99

O=CO + C1COCO1
298.15 K, 101 kPa
Conditions	viscosity [mPa·s]
x2 = 0.0646	1.419
x2 = 0.1345	1.36
x2 = 0.2103	1.292
x2 = 0.2929	1.216
x2 = 0.3832	1.131
x2 = 0.4824	1.035
x2 = 0.5918	0.9302
x2 = 0.7131	0.8195
x2 = 0.8483	0.7018

CC(Cl)(Cl)Cl + CCCO
298.15 K, 101 kPa
Conditions	viscosity [mPa·s]
x1 = 0.0572	1.789
x1 = 0.1154	1.667
x1 = 0.193	1.506
x1 = 0.3007	1.318
x1 = 0.3956	1.165
x1 = 0.49	1.045
x1 = 0.6367	0.909
x1 = 0.7983	0.824
x1 = 0.8861	0.799

O=CO + CCCC(C)=O
viscosity [mPa·s], 101 kPa
Conditions	x1 = 0.1002	x1 = 0.1998	x1 = 0.3016	x1 = 0.3992	x1 = 0.4881	x1 = 0.5974	x1 = 0.7186	x1 = 0.8392	x1 = 0.8701
298.15 K	0.5043	0.5479	0.6037	0.6689	0.7348	0.8418	1.003	1.198	1.262
308.15 K	0.4519	0.4876	0.5327	0.586	0.6424	0.7294	0.8532	1.011	1.058
318.15 K	0.4015	0.4344	0.4713	0.5146	0.5589	0.6331	0.7325	0.8607	0.8982
